Test results taken from ChEMBL document CHEMBL1201862, “PubChem BioAssay data set” (2004).
Activity calls are given as the source filed them.

Key:
[1] = IC50 of insulin release inhibition, rat insulinoma INS-1E line, 5 mM glucose, cell-based (AID 1117331); type: functional
[2] = glucagon-like peptide-1 release potency in STC-1, concentration-response, half-maximal inhibitory concentration in the STC-1 line (AID 1117345); type: functional, cell-based
[3] = Potency on glucagon-like peptide 1 release, dose-response in NCI-H716 cell line, half maximal inhibitory concentration (AID 1117344); type: functional, cell-based
[4] = HIV-1 Vif–A3G interaction blockers – biochemical, TR-FRET, GST-Vif 1-94, biotin-A3G peptide, dose response retest, primary screen (AID 1117319); type: functional;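 also: TR-FRET signal of purified GST-Vif binding a biotinylated A3G peptide; inhibitors lower the FRET signal by blocking Vif and A3G binding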
[5] = viability loss in Vero cells – cytotoxicity control for Vif-APOBEC3G degradation inhibitor project, dose response (AID 1117358); type: functional; settings: Vero
[6] = NIH-3T3 fibroblast cytotoxicity, dose response, cytotoxicity control, cell-based, fluorescence, Alamar Blue, secondary assay (AID 2327); type: functional;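 also: NIH-3T3 mouse fibroblasts cultured with fluconazole at 8 µg/mL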
[7] = target: Beta-galactosidase (Escherichia coli, UniProt Q8VNN2); test: PubChem AID 485352; type: functional
[8] = fluconazole-exposed Candida albicans growth modulators – fluorescence, retest, confirmation (AID 2467); type: functional, cell-based
[9] = target: Large T antigen (Simian virus 40, UniProt P03070); type: functional, Betapolyomavirus macacae;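 also: Confirmatory-stage PubChem screen for compounds that inhibit SV40 T antigen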
[10] = target: T1, Type-1 angiotensin II receptor (Homo sapiens, UniProt P30556); test: antagonism of angiotensin II type 1 receptor – cell-based, uHTS hits, selectivity assay for APJ receptor antagonist project, dose response (AID 463214); type: functional;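 also: antagonist potency against angiotensin II stimulated AT1 response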
T1 sequence (P30556 whole entry): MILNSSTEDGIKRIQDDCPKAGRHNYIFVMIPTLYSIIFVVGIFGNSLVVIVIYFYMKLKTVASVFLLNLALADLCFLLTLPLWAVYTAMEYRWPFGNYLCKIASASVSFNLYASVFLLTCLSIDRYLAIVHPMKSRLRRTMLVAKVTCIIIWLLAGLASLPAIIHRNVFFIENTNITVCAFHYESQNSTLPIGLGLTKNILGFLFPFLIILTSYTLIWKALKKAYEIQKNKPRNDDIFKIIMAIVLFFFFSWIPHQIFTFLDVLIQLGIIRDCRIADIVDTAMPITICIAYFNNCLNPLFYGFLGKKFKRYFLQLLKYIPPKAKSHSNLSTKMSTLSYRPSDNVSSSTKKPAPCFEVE

[11] = viability of PTEN-deleted HCT116 cells – cell-based, HCT116 PTEN knockout, dose response (AID 1047); type: functional;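 also: HCT116 colon tumor cells with PTEN knocked out; cells exposed to compound for 60 hours before readout; potency for loss of cell viability measured by luminescence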
[12] = target: Bifunctional protein GlmU (Mycobacterium tuberculosis, UniProt P9WMN3); test: Inhibitors of Mycobacterial Glucosamine-1-phosphate acetyl transferase (GlmU). Secondary screen.; set-up: species or system Mycobacterium tuberculosis H37Rv
[13] = viability of HCT116 lacking mutant beta-catenin – cell-based, human colon tumor, dose response (AID 1045); type: functional;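 also: HCT116 colon tumor cells with beta catenin knocked out; cells exposed to compound for 60 hours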
[14] = target: Glucose-6-phosphate 1-dehydrogenase (Homo sapiens, UniProt P11413); test: inhibition of Homo sapiens G6PD, dose series – biochemical, fluorescence, selectivity assay for P. falciparum G6PD inhibitor project, dose response (AID 504792); type: functional
[15] = target: Heat shock protein HSP 90-alpha (Homo sapiens, UniProt P07900); type: functional, organism-based
[16] = test system: Vero; test: cells; type: functional; settings: Chlorocebus sabaeus

Chain of Beta-galactosidase (Q8VNN2 whole entry): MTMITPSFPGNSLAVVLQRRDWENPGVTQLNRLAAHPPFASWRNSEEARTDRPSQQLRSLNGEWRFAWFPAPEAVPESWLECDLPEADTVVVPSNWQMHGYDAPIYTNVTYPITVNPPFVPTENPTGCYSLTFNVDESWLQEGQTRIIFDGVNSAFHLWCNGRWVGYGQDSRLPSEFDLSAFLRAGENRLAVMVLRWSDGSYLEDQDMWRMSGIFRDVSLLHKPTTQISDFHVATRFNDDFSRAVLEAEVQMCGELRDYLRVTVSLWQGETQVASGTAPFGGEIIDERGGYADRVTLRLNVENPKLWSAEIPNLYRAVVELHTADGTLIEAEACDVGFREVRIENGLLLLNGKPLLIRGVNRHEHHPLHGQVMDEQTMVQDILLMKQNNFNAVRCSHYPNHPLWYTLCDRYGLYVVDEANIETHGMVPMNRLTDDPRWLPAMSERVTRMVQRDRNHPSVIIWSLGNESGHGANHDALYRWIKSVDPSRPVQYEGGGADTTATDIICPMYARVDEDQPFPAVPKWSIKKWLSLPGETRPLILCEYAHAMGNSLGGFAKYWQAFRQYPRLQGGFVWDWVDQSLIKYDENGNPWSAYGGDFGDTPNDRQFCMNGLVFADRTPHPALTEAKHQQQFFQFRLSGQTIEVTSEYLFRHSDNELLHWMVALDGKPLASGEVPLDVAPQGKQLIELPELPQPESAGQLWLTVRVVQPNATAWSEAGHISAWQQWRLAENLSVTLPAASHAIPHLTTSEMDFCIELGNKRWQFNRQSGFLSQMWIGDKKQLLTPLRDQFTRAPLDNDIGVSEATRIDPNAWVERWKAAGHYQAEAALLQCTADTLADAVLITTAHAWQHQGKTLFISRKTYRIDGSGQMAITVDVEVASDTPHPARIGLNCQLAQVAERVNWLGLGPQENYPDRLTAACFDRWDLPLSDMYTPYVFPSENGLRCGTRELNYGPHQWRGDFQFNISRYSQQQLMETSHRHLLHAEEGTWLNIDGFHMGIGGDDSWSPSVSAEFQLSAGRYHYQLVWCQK
Chain of Large T antigen (P03070 whole entry): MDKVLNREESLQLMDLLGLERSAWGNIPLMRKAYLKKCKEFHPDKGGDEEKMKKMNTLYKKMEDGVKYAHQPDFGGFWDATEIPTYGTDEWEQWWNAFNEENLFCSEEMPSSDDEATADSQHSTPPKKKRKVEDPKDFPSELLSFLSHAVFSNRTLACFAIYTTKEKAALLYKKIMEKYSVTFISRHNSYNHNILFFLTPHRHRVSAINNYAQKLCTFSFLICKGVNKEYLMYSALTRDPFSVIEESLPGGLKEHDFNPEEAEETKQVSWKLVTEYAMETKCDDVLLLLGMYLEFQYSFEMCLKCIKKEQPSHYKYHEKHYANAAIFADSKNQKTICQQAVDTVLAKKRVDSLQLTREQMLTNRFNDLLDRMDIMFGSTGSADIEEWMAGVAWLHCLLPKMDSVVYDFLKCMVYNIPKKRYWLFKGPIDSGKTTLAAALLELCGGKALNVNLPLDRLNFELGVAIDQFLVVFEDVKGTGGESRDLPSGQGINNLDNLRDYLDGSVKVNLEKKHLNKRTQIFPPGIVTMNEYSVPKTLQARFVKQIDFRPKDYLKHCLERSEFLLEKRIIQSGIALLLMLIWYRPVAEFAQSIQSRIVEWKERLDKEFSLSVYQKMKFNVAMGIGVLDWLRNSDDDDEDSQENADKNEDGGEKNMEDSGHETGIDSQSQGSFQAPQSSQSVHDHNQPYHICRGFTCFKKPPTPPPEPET
Chain of Glucose-6-phosphate 1-dehydrogenase (P11413 whole entry): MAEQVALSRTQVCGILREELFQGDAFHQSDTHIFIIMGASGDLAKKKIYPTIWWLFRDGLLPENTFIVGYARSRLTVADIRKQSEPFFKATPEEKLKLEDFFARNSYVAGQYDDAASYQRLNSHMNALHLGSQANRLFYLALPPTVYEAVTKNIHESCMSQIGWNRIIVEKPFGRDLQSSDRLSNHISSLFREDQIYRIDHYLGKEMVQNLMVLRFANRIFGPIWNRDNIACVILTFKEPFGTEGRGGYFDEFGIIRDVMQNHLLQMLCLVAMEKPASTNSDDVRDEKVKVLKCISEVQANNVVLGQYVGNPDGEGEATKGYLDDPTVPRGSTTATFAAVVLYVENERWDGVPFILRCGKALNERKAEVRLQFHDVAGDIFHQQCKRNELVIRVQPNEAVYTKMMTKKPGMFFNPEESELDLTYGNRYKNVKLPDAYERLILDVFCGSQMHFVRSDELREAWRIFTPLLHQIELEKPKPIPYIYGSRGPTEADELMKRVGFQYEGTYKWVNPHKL
Chain of Bifunctional protein GlmU (P9WMN3 whole entry): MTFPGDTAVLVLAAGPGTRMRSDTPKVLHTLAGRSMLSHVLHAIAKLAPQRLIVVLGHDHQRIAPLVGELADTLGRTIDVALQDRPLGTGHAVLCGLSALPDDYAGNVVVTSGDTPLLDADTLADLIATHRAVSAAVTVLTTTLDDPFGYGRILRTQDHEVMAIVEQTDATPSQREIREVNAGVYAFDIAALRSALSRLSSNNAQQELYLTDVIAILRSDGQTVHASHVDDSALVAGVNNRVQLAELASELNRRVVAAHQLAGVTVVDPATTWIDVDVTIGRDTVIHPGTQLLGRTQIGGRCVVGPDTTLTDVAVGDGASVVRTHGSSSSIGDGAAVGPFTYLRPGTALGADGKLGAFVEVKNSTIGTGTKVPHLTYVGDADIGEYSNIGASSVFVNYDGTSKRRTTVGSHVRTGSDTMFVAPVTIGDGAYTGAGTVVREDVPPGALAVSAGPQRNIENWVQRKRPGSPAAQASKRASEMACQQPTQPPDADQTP

## CCOC(=O)c1ccccc1O [ETHYL SALICYLATE]
[1]
  IC50: > 33.3 µM (inactive)
[2]
  IC50: > 40 µM (inactive)
[3]
  IC50: > 40 µM (inactive)

## CC(C)N1CCC2(CC1)C(C#N)=C(N)NC(S)=C2C#N
[4]
  IC50: > 100 µM (active)
[5]
  CC50: > 40 µM (active)

## CCN(CC)C(=S)SSC(=S)N(CC)CC
[6]
  EC50: > 160 µM (inconclusive)
[7]
  EC50: > 40 µM (inactive)
[8]
  EC50: 2.43 µM (active)
[9]
  IC50: 10.7 µM (active)
[10]
  IC50: 6.64 µM (active)
[11]
  EC50: 0.087 µM (active)
[12]
  IC50: 85 µM (active)
[13]
  EC50: 0.091 µM (active)
[14]
  IC50: > 80 µM (inactive)
[15]
  AC50: 5.18 µM (active)
[16]
  CC50: > 25 µM (active)
